ChEMBL document CHEMBL3286374, “Muchimangins G-J, fully substituted xanthones with a diphenylmethyl substituent, from Securidaca longepedunculata” (J Nat Prod, 2014)
The source made the active and inactive calls. No cut-off for these calls is given here.

Key:
PANC-1 [1] = assay: Cytotoxicity against human PANC1 cells in nutrient-deprived NDM media by WST8 assay; assay type: functional, cell-based
PANC-1 [2] = assay: Cytotoxicity against human PANC1 cells in nutrient-rich DMEM media by WST8 assay; assay type: functional, cell-based

Row | SMILES | Activity (PANC-1 [1]) | Activity (PANC-1 [2])
1 | COc1cc(OC)c(C(c2ccccc2)c2c(O)c(OC)c3oc4c(OC)c(OC)c(OC)c(O)c4c(=O)c3c2O)cc1OC (stereo not drawn) | inactive | inactive
2 | COc1cc(OC)c(C(c2ccccc2)c2c(O)c(OC)c3oc4c(OC)c(O)c(OC)c(O)c4c(=O)c3c2O)cc1OC (stereo not drawn) | inactive | inactive
3 | COc1cc(OC)c(C(c2ccccc2)c2c(O)c(OC)c3oc4c(O)c(OC)c(OC)c(OC)c4c(=O)c3c2O)cc1OC (stereo not drawn) | inactive | inactive
4 | COc1cc(OC)c(C(c2ccccc2)c2c(O)c(OC)c3oc4c(OC)c5c(c(OC)c4c(=O)c3c2O)OCO5)cc1OC (stereo not drawn) | inactive | inactive
